Results as given in patent US10786476B2, “Combination therapy” (IMBRIA PHARMACEUTICALS, INC., priority 2016, dated 2020).
“Also recorded” adds a separate entry of the source. Like-named read-outs stand apart in the source and are kept apart here.

Test: Viscosity / flow property test (flow out of a vial, be swirled, direct drinking)
Format: physicochemical
Protocol: Properties of provided compounds and compositions can be readily tested, including using a number of methods widely known and practiced in the art, in accordance with the present disclosure. For example, viscosity and/or taste of provided compounds can be readily tested. In some embodiments, viscosity was assessed by testing whether a provided compound could readily flow out of a vial or be swirled. In some embodiments, viscosity was assessed by testing whether a provided compound could be administered by direct drinking by a subject. In some embodiments, taste was assessed by testing whether a provided compound could be administered by direct drinking by a subject.

viscosity compared with glycerol (at room temperature) | viscosity compared with glycerol (temperature not stated) | flow property for formulation (listed as 1-29) | Structure (SMILES) | flow property for formulation
lower viscosity than glycerol | lower viscosity than glycerol |  | CCCCCCCC(=O)OCC(COC(=O)CCC(=O)OCC(COC(=O)CCCCCCC)OC(=O)CCCCCCC)OC(=O)CCCCCCC (stereo not shown) [Compound I-30, bis (2,3-bis(octanoyloxy)propyl) succinate] | surprisingly good; also recorded: good flow property for formulation
lower viscosity than glycerol | lower viscosity than glycerol | good flow property for formulation | CCCC(=O)OCC(COC(=O)CCC(=O)OCC(COC(=O)CCC)OC(=O)CCC)OC(=O)CCC (stereo not shown) [Compound I-29, succinate diglycerol tetra-butyric acid] | surprisingly good
